Experimental data as given in patent US9540357B1, “15-aryl prostaglandins as EP4 agonists, and methods of use thereof” (Allergan, Inc., priority 2014, dated 2017).

What was measured:
EP2 [1] = target: T1, EP2 (Homo sapiens (Human), UniProt P43116); assay: Competition binding ([3H]PGE2), EP2; settings: HEK 293 cells stably expressing human EP2 receptors, [3H]PGE2 10 nM
Method: Competition binding experiments were performed in a medium containing Hank's balanced salt solution, HEPES 20 mM, pH 7.3, membranes (˜60 μg protein) or 2×10^5 cells from HEK 293 cells stably expressing human EP2 receptors, [^3H]PGE2 (10 nM) and various concentrations of test compounds in a total volume of 300 μl. Reaction mixtures were incubated at 23° C. for 60 min, and were filtered over Whatman GF/B filters under vacuum. Filters were washed three times with 5 ml ice-cold buffer containing 50 mM Tris/HCl (pH 7.3). Non-specific binding was estimated in the presence of excess unlabeled PGE2 (10 μM). Binding data fitted to the binding model for a single class of binding sites, using nonlinear regression analysis. IC50 values thus obtained were converted to Ki using the equation of Ki=(IC50/(1+[L]/KD) where [L] represents PGE2 concentration (10 nM) and KD the dissociation constant for [^3H]PGE2 at human EP2 receptors (40 nM).

EP4 [2] = target: T2, EP4 (Homo sapiens (Human), UniProt P35408); assay: cAMP assay, EP4; format: cell-based; settings: HEK-EBNA cells expressing EP4
T2 sequence (P35408 whole entry): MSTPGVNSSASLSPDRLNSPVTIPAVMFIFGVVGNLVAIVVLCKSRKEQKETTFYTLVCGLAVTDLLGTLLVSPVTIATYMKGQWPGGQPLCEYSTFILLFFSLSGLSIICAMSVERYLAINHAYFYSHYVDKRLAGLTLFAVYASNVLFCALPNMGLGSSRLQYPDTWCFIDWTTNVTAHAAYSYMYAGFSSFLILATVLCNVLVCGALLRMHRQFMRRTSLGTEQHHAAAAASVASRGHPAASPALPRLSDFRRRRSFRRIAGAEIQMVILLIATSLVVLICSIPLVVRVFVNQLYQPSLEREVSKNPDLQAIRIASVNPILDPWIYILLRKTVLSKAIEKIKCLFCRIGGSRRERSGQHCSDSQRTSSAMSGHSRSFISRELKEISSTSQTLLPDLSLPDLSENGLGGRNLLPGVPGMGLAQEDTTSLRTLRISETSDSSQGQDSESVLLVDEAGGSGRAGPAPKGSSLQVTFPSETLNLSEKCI
Method: A 384-well drug plate was prepared to contain 6 test compounds, PGE2 and cAMP in 16 serial dilutions in triplicate, using a Biomek station. HEK-EBNA cells expressing a target PG receptor subtype (EP2 or EP4) were suspended in a stimulation buffer (HBSS, 0.1% BSA, 0.5 mM IBMX and 5 mM HEPES, pH 7.4) in a density of 10^4 cells/5 microliters. The reaction was initiated by mixing 5 microliters drug dilutions with 5 microliters of HEK-EBNA cells in a well, carried out for 30 min at room temperature, and followed by the addition of 5 microliters anti-cAMP acceptor beads in the control buffer with Tween-20 (25 mM NaCl, 0.03% Tween-20, 5 mM HEPES, pH 7.4). After 30 min in the dark at room temperature, the mixtures were incubated with 15 microliters biotinylated-cAMP/streptavidin donor beads in Lysis/Detection buffer (0.1% BSA, 0.3% Tween-20 and 5 mM HEPES, pH 7.4) for 45 min at room temperature. Fluorescence changes were read using a Fusion-alpha microplate reader.

EP4 [3] = target: T2, EP4; assay: Competition binding, EP4
EP2 [4] = target: T1, EP2; assay: cAMP assay, EP2; format: cell-based; settings: HEK-EBNA cells expressing EP2
hDP = hDP (Homo sapiens (Human), UniProt Q13258); assay: FLIPR calcium signal, hDP; format: cell-based; settings: HEK-293(EBNA) cells expressing hDP/Gqs5
hDP, sequence (Q13258 whole entry): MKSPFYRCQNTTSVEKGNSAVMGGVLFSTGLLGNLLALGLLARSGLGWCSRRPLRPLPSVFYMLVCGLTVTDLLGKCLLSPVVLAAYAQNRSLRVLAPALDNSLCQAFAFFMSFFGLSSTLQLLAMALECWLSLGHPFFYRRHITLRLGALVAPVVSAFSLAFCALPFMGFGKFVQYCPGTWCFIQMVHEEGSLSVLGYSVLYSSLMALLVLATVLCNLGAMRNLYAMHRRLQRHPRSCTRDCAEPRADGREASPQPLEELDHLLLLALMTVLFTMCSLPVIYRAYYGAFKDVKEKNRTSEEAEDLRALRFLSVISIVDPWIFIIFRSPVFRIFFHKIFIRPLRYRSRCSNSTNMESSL
Method: (§1) HEK-293(EBNA) cells, stably expressing one type or subtype of recombinant human prostaglandin receptors (prostaglandin receptors expressed: hDP/Gqs5; hEP1; hEP2/Gqs5: hEP3A/Gqi5; hEP4/Gqs5; hFP; hIP; hTP), were cultured in 100 mm culture dishes in high-glucose DMEM medium containing 10% fetal bovine serum, 2 mM 1-glutamine, 250 μg/ml geneticin (G418) and 200 microgram/mL hygromycin B as selection markers, and 100 units/ml penicillin G, 100 microgram/mL streptomycin and 0.25 microgram/mL amphotericin B.
(§2) Cells were seeded at a density of 5×10^4 cells per well in Biocoat® Poly-D-lysine-coated black-wall, clear-bottom 96-well plates (Becton-Dickinson) and allowed to attach overnight in an incubator at 37° C. Cells were then washed two times with HBSS-HEPES buffer (Hanks Balanced Salt Solution without bicarbonate and phenol red, 20 mM HEPES, pH 7.4) using a Denley Cellwash plate washer (Labsystems). […]
(§3) Cells were excited with an Argon laser at 488 nm, and emission was measured through a 510-570 nm bandwidth emission filter (FLIPR™, Molecular Devices, Sunnyvale, Calif.). […] The peak increase in fluorescence intensity was recorded for each well. […] The peak fluorescence change in each drug-containing well was then expressed relative to the controls. […]

hTP = hTP (Homo sapiens (Human), UniProt P21731); assay: FLIPR calcium signal, hTP; format: cell-based; settings: HEK-293(EBNA) cells expressing hTP
hTP, sequence (P21731 whole entry): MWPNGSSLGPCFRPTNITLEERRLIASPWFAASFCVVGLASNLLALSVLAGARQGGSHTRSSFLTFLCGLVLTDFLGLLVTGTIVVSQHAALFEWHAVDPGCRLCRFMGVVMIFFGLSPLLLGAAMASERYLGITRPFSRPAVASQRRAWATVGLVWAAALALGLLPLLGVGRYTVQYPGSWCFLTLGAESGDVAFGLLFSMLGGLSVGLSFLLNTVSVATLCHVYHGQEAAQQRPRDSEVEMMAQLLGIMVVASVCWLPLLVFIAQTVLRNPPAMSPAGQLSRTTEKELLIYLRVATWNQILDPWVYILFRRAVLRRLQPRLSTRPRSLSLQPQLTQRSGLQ
Method: as §1, §2, §3

hEP3A = hEP3A (Homo sapiens (Human), UniProt P43115); assay: FLIPR calcium signal, hEP3A; format: cell-based; settings: HEK-293(EBNA) cells expressing hEP3A/Gqi5
hEP3A, sequence (P43115 whole entry): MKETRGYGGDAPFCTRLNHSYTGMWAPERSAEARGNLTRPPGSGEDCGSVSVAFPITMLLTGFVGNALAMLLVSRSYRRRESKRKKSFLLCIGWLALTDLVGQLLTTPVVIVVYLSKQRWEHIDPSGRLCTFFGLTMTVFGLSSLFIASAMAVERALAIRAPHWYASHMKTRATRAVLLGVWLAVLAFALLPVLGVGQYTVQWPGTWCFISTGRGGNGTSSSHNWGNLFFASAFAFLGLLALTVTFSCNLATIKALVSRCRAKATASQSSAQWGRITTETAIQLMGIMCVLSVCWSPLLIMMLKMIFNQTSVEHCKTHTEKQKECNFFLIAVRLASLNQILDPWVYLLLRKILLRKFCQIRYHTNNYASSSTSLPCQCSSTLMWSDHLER
Method: as §1, §2, §3

hFP = hFP (Homo sapiens (Human), UniProt P43088); assay: FLIPR calcium signal, hFP; format: cell-based; settings: HEK-293(EBNA) cells expressing hFP
hFP, sequence (P43088 whole entry): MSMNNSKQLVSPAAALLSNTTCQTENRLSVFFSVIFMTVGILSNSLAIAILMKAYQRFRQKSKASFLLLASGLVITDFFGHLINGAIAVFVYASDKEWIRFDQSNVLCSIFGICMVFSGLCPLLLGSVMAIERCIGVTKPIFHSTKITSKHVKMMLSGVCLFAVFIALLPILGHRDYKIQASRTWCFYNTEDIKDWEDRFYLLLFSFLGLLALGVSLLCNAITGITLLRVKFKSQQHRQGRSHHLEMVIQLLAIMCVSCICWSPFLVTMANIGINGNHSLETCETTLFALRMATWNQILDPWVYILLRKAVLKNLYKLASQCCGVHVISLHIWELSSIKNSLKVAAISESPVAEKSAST
Method: as §1, §2, §3

hEP1 = hEP1 (Homo sapiens (Human), UniProt P34995); assay: FLIPR calcium signal, hEP1; format: cell-based; settings: HEK-293(EBNA) cells expressing hEP1
hEP1, sequence (P34995 whole entry): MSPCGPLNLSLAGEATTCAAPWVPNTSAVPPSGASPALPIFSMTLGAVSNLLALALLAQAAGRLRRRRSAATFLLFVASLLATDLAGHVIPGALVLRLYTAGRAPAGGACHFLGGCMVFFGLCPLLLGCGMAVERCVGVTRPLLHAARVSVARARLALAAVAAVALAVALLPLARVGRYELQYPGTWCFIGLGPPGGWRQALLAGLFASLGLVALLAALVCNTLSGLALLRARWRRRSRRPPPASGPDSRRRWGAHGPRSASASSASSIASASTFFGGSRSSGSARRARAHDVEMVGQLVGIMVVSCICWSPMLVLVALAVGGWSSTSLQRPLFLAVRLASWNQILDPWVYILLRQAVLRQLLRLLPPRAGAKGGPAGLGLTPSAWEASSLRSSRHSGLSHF
Method: as §1, §2, §3

T1 sequence (P43116 whole entry): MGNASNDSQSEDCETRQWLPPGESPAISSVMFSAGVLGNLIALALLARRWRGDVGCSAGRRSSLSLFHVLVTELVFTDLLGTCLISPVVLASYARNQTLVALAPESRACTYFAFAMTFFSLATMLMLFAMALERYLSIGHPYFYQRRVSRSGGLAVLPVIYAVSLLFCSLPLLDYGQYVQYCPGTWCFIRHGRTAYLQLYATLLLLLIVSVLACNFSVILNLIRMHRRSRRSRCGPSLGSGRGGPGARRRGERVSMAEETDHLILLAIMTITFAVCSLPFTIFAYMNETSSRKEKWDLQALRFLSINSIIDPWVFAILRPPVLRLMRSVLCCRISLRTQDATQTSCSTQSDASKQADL

SMILES | Ki (EP2 [1]) | EC50 (EP4 [2]) | Ki (EP4 [3]) | EC50 (EP2 [4]) | EC50 against hDP (hDP) | EP2 Ki (EP2 [1]) | EC50 against hTP (hTP) | EC50 against hEP3A (hEP3A) | EC50 against hFP (hFP) | EC50 against hEP1 (hEP1)
O=C(O)c1ccc(CCCN2C(=O)CC[C@@H]2/C=C/C(O)c2cccc(Br)c2)cc1 (single isomer, unassigned) [Example 2] | 7490 nM | 194 nM | 1210 nM | 149 nM | – | – | – | – | – | –
Cc1cc(O)ccc1-c1cccc(C(O)/C=C/[C@H]2CCC(=O)N2CCCc2ccc(C(=O)O)cc2)c1 (single isomer, unassigned) [Example 9] | – | 326 nM | 3320 nM | – | not active | > 10000 nM | not active | not active | not active | not active
Cc1cc(O)ccc1-c1cccc(C(O)/C=C/[C@H]2CCC(=O)N2CCCc2ccc(C(=O)O)cc2)c1 (single isomer, unassigned) [Example 10] | – | 3 nM | 25 nM | – | not active | > 10000 nM | not active | not active | not active | not active
CC(C)c1cc(O)ccc1-c1cccc(C(O)/C=C/[C@H]2CCC(=O)N2CCCc2ccc(C(=O)O)cc2)c1 (stereo partly drawn) [Example 30, 4-[3-(2(R)-{(1E)-3-hydroxy-3-[4′-hydroxy-2′-(propan-2-yl)biphenyl-3-yl]prop-1-en-1-yl}-5-oxopyrrolidin-1-yl)propyl]benzoic acid] | – | 134 nM | 582 nM | – | – | > 10000 nM | – | – | – | –
CC(C)c1cc(O)ccc1-c1cccc(C(O)/C=C/[C@H]2CCC(=O)N2CCCc2ccc(C(=O)O)cc2)c1 (stereo partly drawn) [Example 31, 4-[3-(2(R)-{(1E)-3-hydroxy-3-[4′-hydroxy-2′-(propan-2-yl)biphenyl-3-yl]prop-1-en-1-yl}-5-oxopyrrolidin-1-yl)propyl]benzoic acid] | – | 60 nM | 211 nM | – | – | > 10000 nM | – | – | – | –
Cc1cc(Cl)ccc1-c1ccc(C(O)/C=C/[C@H]2CCC(=O)N2CCCc2ccc(C(=O)O)cc2)s1 (stereo partly drawn) [Example 33, 4-[3-(2(R)-{(1E)-3-[5-(4-chloro-2-methylphenyl)thiophen-2-yl]-3-hydroxyprop-1-en-1-yl}-5-oxopyrrolidin-1-yl)propyl]benzoic acid] | – | 118 nM | 536 nM | – | – | > 10000 nM | – | – | – | –
